Three molecules from paper PMC10609963, “Targeting Lactate Dehydrogenase-B as a Strategy to Fight Cancer: Identification of Potential Inhibitors by In Silico Analysis and In Vitro Screening” (Pharmaceutics, 2023) can be followed below.

Data set [1] deals with T1, Recombinant human LDH-B (Homo sapiens, UniProt P07195).
T1 construct: gene LDHB; commercial recombinant protein (R&D Systems); homotetramer (LDH-1)
Nature of the data set: NBT/PMS end-point colorimetric assay, 96-well, lactate to pyruvate. The data set is classed as biochemical.

Data set [2] deals with T1, Recombinant human LDH-B. The experiment in a line: NBT/PMS colorimetric kinetics, mixed-model inhibition fit. It is filed as biochemical. An excerpt:
NBT/PMS colorimetric kinetics, mixed-model inhibition fit on Recombinant human LDH-B

Another data set has as its system T2, C[C@H](O)C(=O)O.
T2 construct: commercial recombinant protein (R&D Systems); homotetramer (LDH-1)
Nature of the data set: NBT/PMS colorimetric kinetics, Michaelis-Menten fit. It is filed as biochemical, Homo sapiens. As to conditions: 1 mM NAD+, no inhibitor (control), pH 9.6, room temperature. An excerpt: (§1) NBT/PMS colorimetric kinetics, Michaelis-Menten fit on Recombinant human LDH-B

In data set [3] the test system is T3, NC(=O)c1ccc[n+]([C@@H]2O[C@H](COP(=O)(O)OP(=O)(O)OC[C@H]3O[C@@H](n4cnc5c(N)ncnc54)[C@H](O)[C@@H]3O)[C@@H](O)[C@H]2O)c1.
T3 construct: commercial recombinant protein (R&D Systems); homotetramer (LDH-1)
Described as above. The data set is classed as biochemical, Homo sapiens. Particulars: 25 mM sodium lactate, no inhibitor (control), pH 9.6, room temperature, varied: cofactor.
From the text: as §1

Read-outs that look alike come from different tables or passages of the source.

T1 sequence (P07195 2-334): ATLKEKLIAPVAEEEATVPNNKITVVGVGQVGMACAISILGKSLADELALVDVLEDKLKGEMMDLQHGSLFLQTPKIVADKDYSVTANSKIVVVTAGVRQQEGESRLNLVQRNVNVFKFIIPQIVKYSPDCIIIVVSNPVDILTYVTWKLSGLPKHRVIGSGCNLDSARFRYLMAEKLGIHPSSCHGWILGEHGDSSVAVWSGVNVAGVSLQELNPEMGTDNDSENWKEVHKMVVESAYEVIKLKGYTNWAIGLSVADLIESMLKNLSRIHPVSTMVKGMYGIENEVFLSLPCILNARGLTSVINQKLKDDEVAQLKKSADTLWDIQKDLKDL

For the molecule `CNC(=O)c1ccc(-c2cnc3ncc(Cc4ccc5ncccc5c4)n3n2)cc1F` [compound 2, Capmatinib], the IC50 (commonly the concentration that inhibits the measured activity by half) on Recombinant human LDH-B [1] worked out at 512 µM. The Ki on Recombinant human LDH-B [2] (read-out: Capmatinib / Lactate) worked out at 2690 µM.

For Recombinant human LDH-B (Homo sapiens), in the data set on C[C@H](O)C(=O)O, the Km – broadly, the concentration of substrate that gives half-maximal velocity – is 18.5 mM and the Vmax – broadly, the rate approached at saturating substrate – was 1050 µM/min. In data set [3], the Km amounted to 0.311 mM and the Vmax was 1040 µM/min.

For `Cc1cc(Nc2ncnc3ccc(NC4=NC(C)(C)CO4)cc23)ccc1Oc1ccn2ncnc2c1` [compound 1, Tucatinib], at Recombinant human LDH-B [1], the IC50 is 502 µM. Moreover, the Ki on Recombinant human LDH-B [2] (read-out: Tucatinib / Lactate) was 2960 µM.
